Measured values taken from patent US9204640B2, “2-acyloxy-pyrrolin-4-ones” (BAYER INTELLECTUAL PROPERTY GMBH, priority 2011, dated 2015).

How the values were obtained:
Assay type in all cases: in vivo
Echinocloa crus-galli = test: Herbicidal post-emergence action, ECHCG; conditions: 20 g/ha
Procedure, shortened: (§1)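 Weeds sown in sandy loam, grown in greenhouse 2–3 weeks and treated post-emergence at one-leaf stage (or BBCH 10–13, 5–10 cm) with WP/EC formulations sprayed at various dosages (600–800 l/ha water, 0.1–0.2% wetting agent). Visual rating after about 3 weeks as % activity versus untreated (100% = dead).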

Myzus persicae [1] = test: Myzus persicae test; hydroponic treatment (MYZUPE Sys); conditions: 20 ppm, 6dat
Experimental: Myzus Persicae Test; Hydroponic Treatment (MYZUPE Sys)
To produce a suitable preparation of active compound, 1 part by weight of active compound is mixed with the stated amounts of solvent and emulsifier, and the concentrate is diluted with water to the desired concentration.
The active compound preparation is mixed with water. The stated concentration refers to the amount of active compound per volume unit of water (mg/l=ppm). The treated water is filled into vessels containing a pea plant (Pisum sativum), and the plant is the infested with the green peach aphid (Myzus persicae).
After the desired period of time, the kill in % is determined 100% means that all of the aphids have been killed; 0% means that none of the aphids have been killed.

Digitaria sanguinalis = test: Herbicidal post-emergence action, DIGSA; conditions: 20 g/ha
Procedure, shortened: as §1

Tetranychus urticae = test: Tetranychus test (TETRUR spray treatment; OP-resistant in Example 10); conditions: application rate 100 g/ha, after 5 days, bean leaf discs
Procedure, shortened: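 Bean leaf discs (Phaseolus vulgaris) infested with all stages of Tetranychus urticae sprayed with compound diluted in emulsifier-containing water. In the standard test, % kill scored after 5 days. The OP-resistant strain test uses the same method with scoring after a set period; 100% = all mites dead, 0% = none.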

Alopecurus myosuroides = test: Herbicidal post-emergence action, ALOMY; conditions: 20 g/ha
Procedure, shortened: as §1

Myzus persicae [2] = test: Myzus test (MYZUPE spray treatment); conditions: application rate 500 g/ha, after 5 days, Chinese cabbage leaf discs
Procedure, shortened: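 Chinese cabbage leaf discs carrying all stages of green peach aphid sprayed with compound diluted in emulsifier-containing water to the desired concentration. Mortality scored as % after 5 days, where 100% means all aphids dead and 0% none.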

With `CCOC(=O)OC1=C(c2c(C)cc(I)cc2CC)C(=O)C2(CCC(OC)CC2)N1` (mixture of isomers) [I-b-2] the “% Activity ECHCG” value (Echinocloa crus-galli) was 70%, the “% Activity MYZUPE sys” value (Myzus persicae [1]) was 99% and the “% Activity DIGSA” value (Digitaria sanguinalis) was 90%. The “effect in % (spider mites killed)” value (Tetranychus urticae) was 80%, the “% Activity ALOMY” value (Alopecurus myosuroides) was 90% and the “effect in % (aphids killed)” value (Myzus persicae [2]) was 100%.
